Source: patent EP0186181A2, “Uses for enprostil” (SYNTEX (U.S.A.) INC., priority 1984, dated 1986)
Read-outs that look alike come from different tables or passages of the source.

Columns and labels:
[1] = system: serum insulin and glucose; assay: Serum insulin and glucose after meal, double blind crossover study (Example V); type: in vivo, human; conditions: orally 30 minutes before meal
Method: A group of 10 subjects participated in a double blind crossover study. Either a placebo or enprostil was orally given 30 minutes before meal time and levels of insulin and glucose were measured after the meal.

[2] = system: serum xylose; assay: Oral d-xylose absorption, 10-day placebo controlled cross-over (Example VII); type: in vivo, human; conditions: 70 µg enprostil per day, 5 g d-xylose orally
Method: (§1) 10 normal subjects participated in a 10-day placebo controlled cross-over receiving either placebo or […] enprostil per day. On day 1 and day 9 of each study phase they orally received 5 g of d-xylose, a sugar not normally metabolized in man. Blood measurements for serum xylose were made at -30, 0, +30, 60, 120, 180, 240, and 300 minutes following ingestion of xylose. On day 2 and day 10 of each study phase, the subjects received a 25 g intravenous glucose tolerance test, 30 minutes following enprostil administration.

[3] = system: serum cholesterol, LDL cholesterol, HDL cholesterol, apoproteins; assay: 9-day placebo controlled cross-over study in normal subjects: cholesterol, LDL, HDL, apoproteins (Table 2); type: in vivo, human; design: Mean reduction of cholesterol / Mean reduction of LDL cholesterol / Mean reduction of HDL cholesterol / Mean reduction of apoprotein A / Mean reduction of apoprotein B: concentration or dose not given beside the values; conditions: 9-day cross-over
Method: To further clarify the nature of these changes in a prospective manner, normal subjects were dosed with enprostil for periods ranging from 8 days up to 44 days in duration.
In a 9-day placebo controlled cross-over study, with each subject serving as their own control, the mean reduction in cholesterol, Low Density Lipoprotein (LDL) cholesterol, and High Density Lipoprotein (HDL) cholesterol are shown in Table 2.
These findings are surprising since the subjects in this study were normocholesterolemic at baseline (that is serum cholesterol under 250 mg/dl) and were on a free diet with no attempt to regulate dietary cholesterol intake.

[4] = system: serum insulin and glucose; assay: Eight-day crossover study with standard breakfast: serum glucose, insulin, GIP (Example VI); type: in vivo, human; conditions: 70 µg orally
Method: Eight healthy male subject received either 70 µg enprostil per day or placebo for eight days followed by a washout period of one week and a subsequent second eight-day administration during which they received the opposite drug regime.
On day 1 and day 8 of each study period the patients reported to the clinical studies unit fasting and were administered 70 µg of enprostil orally in a glass of water. Thirty minutes later they were administered a standard breakfast and blood samples were drawn at -30, just prior to enprostil administration, 0, at the time of enprostil administration, 15, 30, 60, 90, 120 and 180 minutes.

[5] = system: serum glucose; assay: 25 g intravenous glucose tolerance test (Example VII); type: in vivo, human; conditions: 30 minutes following enprostil administration, day 2 and day 10
Method: as §1

[6] = system: serum cholesterol; assay: Effect of orally administered enprostil on serum cholesterol, five weeks (Example I); type: in vivo, human
Method: A group of 20 patients with high cholesterol baseline were orally given 70 µg enprostil twice daily. […] The median change for the group was 16 percent reduction, with 60 percent of the patients tested showing a significant reduction in serum cholesterol.
A second group of 16 patients with a high cholesterol baseline were given 35 µg enprostil twice daily.
A third group of 13 individuals were given a placebo. […] The median change was a 2 percent increase in cholesterol.

[7] = system: serum cholesterol; assay: Cholesterol reduction study, 7 to 70 µg BID versus placebo (Example II, Table 1); type: in vivo, human
[8] = system: serum cholesterol; assay: 44 day dosing placebo controlled trial, serum cholesterol (Example III); type: in vivo, human
Method: In a 44 day dosing study 20 subject participated in a placebo controlled trial. Ten subjects received enprostil and the remainder received placebo. […] Similarly there was a 46% reduction in their LDL cholesterol from 140 mg/dl to 75 mg/dl. This subject was normocholesterolemic at baseline and no dietary manipulation was attempted.

[9] = system: serum GIP; assay: Serum GIP after meal stimulus, double blind crossover study (Example IV); type: in vivo, human; conditions: 70 µg orally 30 minutes before meal; placebo showed a four fold increase
Method: Serum GIP levels are known to increase after meals.
Groups of 10 subjects participated in a double blind, crossover study. Either the placebo or 70 µg enprostil was orally given 30 minutes before meal time and levels of GIP were measured.

[10] = system: serum glucose; assay: Serum glucose after standard breakfast, study lasting up to 44 days (Example VIII); type: in vivo, human; conditions: 35 µg BID, standard breakfast 30 minutes after dose
Method: 20 subjects participated in a study lasting up to 44 days. On day -8, all 20 subjects received a placebo capsule followed 30 minutes later by a standard breakfast with serial blood measurements. Eight days later all 20 subjects were randomized to either enprostil […] BID or placebo and continued dosing for a period of 30 days. On days 1, 8, and 30, they were given enprostil followed 30 minutes later by a standard breakfast with serial blood measurements.

[11] = system: insulin levels; conditions: cited from earlier work
[12] = normocholesterolemic subjects, free diet
[13] = 35 µg twice daily, of 16 patients
[14] = 70 µg twice daily, of 20 patients
[15] = of nine subjects who received enprostil
[16] = subject number 120, from 140 mg/dl
[17] = administered by tube to the duodenum

## COC(=O)CCC=C=CC[C@H]1C(=O)C[C@@H](O)[C@@H]1/C=C/[C@@H](O)COc1ccccc1 [enprostil]
[1]
  raise in glucose levels after the meal: no statistically or clinically significant raise
[1]; placebo five fold
  increase of insulin levels after the meal: two
[2]
  reduction in the amount of xylose excreted over 5 hours: 30%
[2]; days 1 and 9
  peak serum xylose levels: marked suppression and delay
[2]; versus 1.8g
  amount of xylose excreted over 5 hours: 1.3 g
[3]
  change in total triglycerides: essentially no change
[3]; [12]
  Mean reduction of HDL cholesterol: -9.2%
  Mean reduction of LDL cholesterol: -21.0%
  Mean reduction of apoprotein A: -1.8%
  Mean reduction of apoprotein B: -16.0%
  Mean reduction of cholesterol: -15.0%
[4]; both study days
  serum GIP: essentially complete inhibition
[4]; day 1 and 8
  serum insulin concentrations for each time point: marked reduction
[4]; day 1 and day 8
  reduction of area under the serum glucose by time curve compared to the placebo phase: 15-20%
[5]
  serum glucose by time curves following intravenous glucose administration, versus placebo: no marked differences
[6]; 35 µg twice daily, 16 patients
  patients showing serum cholesterol reduction: 56%
[6]; 35 µg twice daily, 16 patients with high cholesterol baseline
  median change (reduction in serum cholesterol): eleven
[6]; [13]
  number of patients showing greater than 10 percent serum cholesterol reduction: eight
  number of patients showing greater than 25 percent reduction in serum cholesterol: one
  number of patients showing no change in serum cholesterol: seven
[6]; 70 µg twice daily orally, 20 patients
  patients tested showing a significant reduction in serum cholesterol: 60%
[6]; 70 µg twice daily orally, 20 patients with high cholesterol baseline
  median change for the group (reduction in serum cholesterol): 16%
[6]; [14]
  number of patients showing greater than 10 percent reduction in serum cholesterol: eleven
  number of patients showing greater than 25 percent reduction in serum cholesterol: one
  number of patients showing no change in serum cholesterol: eight
[7]; 7 µg BID, 9 subjects
  Cholesterol % decrease (combined 2-12 week of dosing): 67%
  Median % change (cholesterol): -11%
[7]; 35 µg BID, 28 subjects
  Cholesterol % decrease (combined 2-12 week of dosing): 64%
  Median % change (cholesterol): -13%
[7]; 70 µg BID, 28 subjects
  Cholesterol % decrease (combined 2-12 week of dosing): 64%
  Median % change (cholesterol): -17%
[8]; [15]
  number of individuals with a reduction in total and LDL cholesterol throughout the entire 44 day period: Three
  number of subjects showing a reduction of total cholesterol by 16 days: Six
[8]; subject number 120, day 44 versus mean baseline of 208 mg/dl
  reduction of total serum cholesterol: 43%
[8]; [16]
  LDL cholesterol after dosing: 75 mg/dL
  reduction in LDL cholesterol: 46%
[8]; subject number 120, mean baseline 208 mg/dl
  total serum cholesterol at day 44: 123 mg/dL
[9]
  increase in serum GIP 60 minutes after the meal stimulus: no increase
[10]
  peak blood glucose levels versus placebo: substantially reduced
[10]; delay from approximately 60 minutes
  time of appearance of peak blood glucose levels: ~90 min

## CCCCC[C@](C)(O)/C=C/[C@H]1[C@H](O)CC(=O)[C@@H]1C/C=C\CCCC(=O)OC [15S, 15 methyl PGE2 methyl ester]
[11]; [17]
  insulin levels: lowered insulin levels
  serum glucose levels: no change
[11]; intraduodenally or intravenously
  time to peak serum glucose levels: no change
[11]; intravenous administration
  glucose levels: without affecting glucose levels
  insulin levels: lowered insulin levels
